Reference: patent US10881106B2, “Herbicidal pyridazinone compounds” (SYNGENTA PARTICIPATIONS AG, priority 2016, dated 2021)

What was measured:
Format in all cases: in vivo
[1] = test system: Amaranthus retoflexus (AMARE); experiment: Post-emergence glasshouse herbicide test, percentage damage to plant; conditions: POST Application, 125 g/ha, evaluated after 14 days
Procedure: (§1) Seeds of a variety of test species were sown in standard soil in pots (Amaranthus retoflexus (AMARE), Abutilon theophrasti (ABUTH), Digitaria sanguinalis (DIGSA), Setaria faberi (SETFA) and Zea mays (ZEAMX). After cultivation for 10 days under controlled conditions in a glasshouse (at 24/16° C., day/night; 14 hours light; 65% humidity), the plants were sprayed with an aqueous spray solution derived from the formulation of the technical active ingredient in 0.6 ml acetone and 45 ml formulation solution containing 10.6% Emulsogen EL (Registry number 61791-12-6), 42.2% N-methyl pyrrolidone, 42.2% dipropylene glycol monomethyl ether (CAS RN 34590-94-8) and 0.2% X-77 (CAS RN 11097-66-8). The test plants were then grown in a glasshouse under controlled conditions in a glasshouse (at 24/16° C., day/night; 14 hours light; 65% humidity) and watered twice daily. After 14 days the test is evaluated for the percentage damage caused to the plant. The biological activities are shown in the following table on a five point scale (5=80-100%; 4=60-79%; 3=40-59%; 2=20-39%; 1=0-19%).

Setaria faberi (SETFA) = experiment: as above; conditions: POST Application, 125 g/ha, evaluated after 14 days
Procedure: as §1

[2] = test system: Digitaria sanguinalis (DIGSA); experiment: as above; conditions: POST Application, 125 g/ha, evaluated after 14 days
Procedure: as §1

[3] = test system: Abutilon theophrasti (ABUTH); experiment: as above; conditions: POST Application, 125 g/ha, evaluated after 14 days
Procedure: as §1

Zea mays (ZEAMX) = experiment: Post-emergence glasshouse herbicide test, percentage damage to crop plant; conditions: POST Application, 125 g/ha, evaluated after 14 days; crop (corn)
Procedure: as §1

Structure (SMILES)	AMARE percentage damage caused to the plant (five point scale) [1]	SETFA percentage damage caused to the plant (five point scale) (Setaria faberi (SETFA))	DIGSA percentage damage caused to the plant (five point scale) [2]	ABUTH percentage damage caused to the plant (five point scale) [3]	ZEAMX percentage damage caused to the plant (five point scale) (Zea mays (ZEAMX))
Cc1cc(C(=O)C2=C(O)CCCC2=O)c(=O)n(CC(=O)N(C)C)n1 [Compound 1.001]	5 (5=80-100%)	5 (5=80-100%)	5 (5=80-100%)	5 (5=80-100%)	1 (1=0-19%)
Cc1cc(C(=O)C2=C([O-])CCCC2=O)c(=O)n(CCC(=O)N(C)C)n1.[Na+] [Compound 1.002, sodium 2-[2-[3-(dimethylamino)-3-oxo-propyl]-6-methyl-3-oxo-pyridazine-4-carbonyl]-3-oxo-cyclohexen-1-olate]	5 (5=80-100%)	5 (5=80-100%)	5 (5=80-100%)	5 (5=80-100%)	1 (1=0-19%)
Cc1cc(C(=O)C2=C(O)CCCC2=O)c(=O)n(CCC(=O)N2CCOCC2)n1 [Compound 1.004]	5 (5=80-100%)	5 (5=80-100%)	5 (5=80-100%)	5 (5=80-100%)	1 (1=0-19%)
CNC(=O)CCn1nc(C)cc(C(=O)C2=C(O)CCCC2=O)c1=O [Compound 1.006]	5 (5=80-100%)	5 (5=80-100%)	5 (5=80-100%)	4 (4=60-79%)	1 (1=0-19%)
CCN(CC)C(=O)CCn1nc(C)cc(C(=O)C2=C(O)CCCC2=O)c1=O [Compound 1.007]	5 (5=80-100%)	5 (5=80-100%)	5 (5=80-100%)	5 (5=80-100%)	1 (1=0-19%)
CNC(=O)OCCn1nc(C)cc(C(=O)C2=C(O)CCCC2=O)c1=O [Compound 1.008]	5 (5=80-100%)	5 (5=80-100%)	5 (5=80-100%)	5 (5=80-100%)	1 (1=0-19%)
Cc1cc(C(=O)C2=C(O)CCCC2=O)c(=O)n(CCOC(=O)N(C)C)n1 [Compound 1.009]	5 (5=80-100%)	4 (4=60-79%)	5 (5=80-100%)	5 (5=80-100%)	1 (1=0-19%)
Cc1cc(C(=O)C2=C([O-])CC(C)CC2=O)c(=O)n(CCC(=O)N(C)C)n1.[Na+] (stereo not drawn) [Compound 1.010]	5 (5=80-100%)	5 (5=80-100%)	5 (5=80-100%)	5 (5=80-100%)	1 (1=0-19%)
CCN(C)C(=O)CCn1nc(C)cc(C(=O)C2=C([O-])CCCC2=O)c1=O.[Na+] [Compound 1.013]	5 (5=80-100%)	5 (5=80-100%)	5 (5=80-100%)	5 (5=80-100%)	1 (1=0-19%)
Cc1cc(C(=O)C2=C([O-])CCCC2=O)c(=O)n(CCC(=O)N(C)CC(F)(F)F)n1.[Na+] [Compound 1.014]	5 (5=80-100%)	5 (5=80-100%)	5 (5=80-100%)	5 (5=80-100%)	1 (1=0-19%)
CN(C)C(=O)CCn1nc(C2CC2)cc(C(=O)C2=C([O-])CCCC2=O)c1=O.[Na+] [Compound 1.016]	5 (5=80-100%)	4 (4=60-79%)	5 (5=80-100%)	5 (5=80-100%)	1 (1=0-19%)
Cc1cc(C(=O)C2=C([O-])CCCC2=O)c(=O)n(CC(F)(F)C(=O)N(C)C)n1.[Na+] [Compound 1.018]	5 (5=80-100%)	5 (5=80-100%)	5 (5=80-100%)	5 (5=80-100%)	1 (1=0-19%)
Cc1cc(C(=O)C2=C([O-])CC(C)CC2=O)c(=O)n(CCC(=O)N(C)CC(F)(F)F)n1.[Na+] (stereo not drawn) [Compound 1.020]	4 (4=60-79%)	5 (5=80-100%)	5 (5=80-100%)	5 (5=80-100%)	1 (1=0-19%)
CCN(CC)C(=O)OCCn1nc(C)cc(C(=O)C2=C([O-])CCCC2=O)c1=O.[Na+] [Compound 1.021]	4 (4=60-79%)	5 (5=80-100%)	5 (5=80-100%)	5 (5=80-100%)	1 (1=0-19%)
CCN(C)C(=O)OCCn1nc(C)cc(C(=O)C2=C([O-])CCCC2=O)c1=O.[Na+] [Compound 1.022]	5 (5=80-100%)	5 (5=80-100%)	5 (5=80-100%)	5 (5=80-100%)	1 (1=0-19%)
Cc1cc(C(=O)C2=C([O-])CCCC2=O)c(=O)n(CCOC(=O)N(C)CC(F)(F)F)n1.[Na+] [Compound 1.023]	3 (3=40-59%)	5 (5=80-100%)	5 (5=80-100%)	3 (3=40-59%)	1 (1=0-19%)
Cc1cc(C(=O)C2=C([O-])CCCC2=O)c(=O)n(CCOC(=O)N2CCCC2)n1.[Na+] [Compound 1.024]	4 (4=60-79%)	5 (5=80-100%)	5 (5=80-100%)	2 (2=20-39%)	1 (1=0-19%)
Cc1cc(C(=O)C2=C([O-])CCCC2=O)c(=O)n(CCOC(=O)N2CCOCC2)n1.[Na+] [Compound 1.025]	5 (5=80-100%)	5 (5=80-100%)	5 (5=80-100%)	5 (5=80-100%)	1 (1=0-19%)
Cc1cc(C(=O)C2=C([O-])CC(C)CC2=O)c(=O)n(CCOC(=O)N(C)C)n1.[Na+] (stereo not drawn) [Compound 1.026]	5 (5=80-100%)	5 (5=80-100%)	5 (5=80-100%)	5 (5=80-100%)	1 (1=0-19%)
Cc1cc(C(=O)C2=C([O-])CC(C)(C)CC2=O)c(=O)n(CCOC(=O)N(C)C)n1.[Na+] [Compound 1.027]	5 (5=80-100%)	5 (5=80-100%)	5 (5=80-100%)	5 (5=80-100%)	1 (1=0-19%)
Cc1cc(C(=O)C2=C([O-])CCCC2=O)c(=O)n(C(C)C(=O)N(C)C)n1.[Na+] (stereo not drawn) [Compound 1.029]	5 (5=80-100%)	5 (5=80-100%)	5 (5=80-100%)	5 (5=80-100%)	1 (1=0-19%)
